The assay has as its target T1, μ opioid receptor (MOR) (Homo sapiens, UniProt P35372).
T1 construct: expressed in transfected cells
Briefly: cell-based. It counts as cell-based.

T1 sequence (P35372 whole entry): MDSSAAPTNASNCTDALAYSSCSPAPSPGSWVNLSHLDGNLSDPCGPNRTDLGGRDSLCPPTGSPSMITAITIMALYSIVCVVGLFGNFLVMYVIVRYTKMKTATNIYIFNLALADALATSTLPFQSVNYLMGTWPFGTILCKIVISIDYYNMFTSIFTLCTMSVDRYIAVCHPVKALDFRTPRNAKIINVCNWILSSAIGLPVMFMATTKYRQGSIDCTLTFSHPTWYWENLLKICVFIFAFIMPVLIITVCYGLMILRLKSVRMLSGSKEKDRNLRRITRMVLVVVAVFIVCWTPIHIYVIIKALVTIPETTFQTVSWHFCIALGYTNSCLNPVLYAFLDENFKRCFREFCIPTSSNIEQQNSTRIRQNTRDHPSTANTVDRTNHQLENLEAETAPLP

For the setting “Series 2 EC50”, `COC(=O)[C@@H]1C=C(OC(=O)c2ccccc2[N+](=O)[O-])C(=O)[C@H]2[C@@]1(C)CC[C@H]1C(=O)O[C@H](c3ccoc3)C[C@]21C` [Series 2 Entry 2, (2S,4aR,6aR,7R,10aR,10bR)-Methyl 2-(furan-3-yl)-6a,10b-dimethyl-9-((2-nitrobenzoyl)oxy)-4,10-dioxo-2,4,4a,5,6,6a,7,10,10a-decahydro-1H-benzo[f]isochromene-7-carboxylate] returned an EC50 of 1900 ± 600 nM.
For `COC(=O)[C@@H]1C=C(OC(=O)c2ccccc2OC)C(=O)[C@H]2[C@@]1(C)CC[C@H]1C(=O)O[C@H](c3ccoc3)C[C@]21C` [Series 2 Entry 14, (2S,4aR,6aR,7R,10aR,10bR)-Methyl 2-(furan-3-yl)-9-((2-methoxybenzoyl)oxy)-6a,10b-dimethyl-4,10-dioxo-2,4,4a,5,6,6a,7,10,10a,10b-decahydro-1H-benzo[f]isochromene-7-carboxylate], it took 2000 ± 1000 nM to reach a half-maximal effect (Series 2 EC50) (EC50).
Take `COC(=O)[C@@H]1C=C(OC(=O)c2cccc(Cl)c2)C(=O)[C@H]2[C@@]1(C)CC[C@H]1C(=O)O[C@H](c3ccoc3)C[C@]21C` [Series 2 Entry 6, (2S,4aR,6aR,7R,10aR,10bR)-Methyl 9-((3-chlorobenzoyl)oxy)-2-(furan-3-yl)-6a,10b-dimethyl-4,10-dioxo-2,4,4a,5,6,6a,7,10,10a,10b-decahydro-1H-benzo[f]isochromene-7-carboxylate]: for the setting “Series 2 EC50”, the EC50 is 250 ± 30 nM.
In the case of `COC(=O)[C@@H]1C=C(OC(=O)c2cncs2)C(=O)[C@H]2[C@@]1(C)CC[C@H]1C(=O)O[C@H](c3ccoc3)C[C@]21C` [Table 3 Entry 8, (2S,4aR,6aR,7R,10aR,10bR)-2-(Furan-3-yl)-7-(methoxycarbonyl)-6a,10b-dimethyl-4,10-dioxo-2,4,4a,5,6,6a,7,10,10a,10b-decahydro-1H-benzo[f]isochromen-9-yl thiazole-5-carboxylate], under “EC50”, the EC50 is > 10000 nM.
Compound `COC(=O)[C@@H]1C=C(OC(=O)c2cccs2)C(=O)[C@H]2[C@@]1(C)CC[C@H]1C(=O)O[C@H](c3ccoc3)C[C@]21C` [Series 2 Entry 20, (2S,4aR,6aR,7R,6aR,7R,10aR,10bR)-Methyl 2-(furan-3-yl)-6a,10bdimethyl-4,10-dioxo-9-((thiophene-2-carbonyl)oxy)-2,4,4a,5,6,6a,7,10,10a,10b-decahydro-1H-benzo[f]isochromene-7-carboxylate] yielded an EC50 (Series 2 EC50) of 1.4 ± 0.8 nM.
`COC(=O)[C@@H]1C=C(OC(=O)c2cscn2)C(=O)[C@H]2[C@@]1(C)CC[C@H]1C(=O)O[C@H](c3ccoc3)C[C@]21C` [Table 3 Entry 7, (2S,4aR,6aR,7R,10aR,10bR)-2-(Furan-3-yl)-7-(methoxycarbonyl)-6a,10b-dimethyl-4,10-dioxo-2,4,4a,5,6,6a,7,10,10a,10b-decahydro-1H-benzo[f]isochromen-9-yl thiazole-4-carboxylate] returned an EC50 (EC50) of 8 ± 3 nM.
Turning to `COC(=O)[C@@H]1C=C(OC(=O)CCc2ccccc2)C(=O)[C@H]2[C@@]1(C)CC[C@H]1C(=O)O[C@H](c3ccoc3)C[C@]21C` [Table 3 Entry 5, (2S,4aR,6aR,7R,10 aR,10bR)-Methyl 2-(furan-3-yl)-6a,10bdimethyl-4,10-dioxo-9-((3-phenylpropanoyl)oxy)-2,4,4a,5,6,6a,7,10,10a,10b-decahydro-1H-benzo[f]isochromene-7-carboxylate], the response (EC50) was half-maximal at 500 ± 200 nM (EC50).
Regarding `COC(=O)[C@@H]1C=C(OC(=O)c2cccc(C)c2)C(=O)[C@H]2[C@@]1(C)CC[C@H]1C(=O)O[C@H](c3ccoc3)C[C@]21C` [Series 2 Entry 12, (2S,4aR,6aR,7R,10aR,10bR)-Methyl 2-(furan-3-yl)-6a,10b-dimethyl-9-((3-methylbenzoyl)oxy)-4,10-dioxo-2,4,4a,5,6,6a,7,10,10a,10b-decahydro-1H-benzo[f]isochromene-7-carboxylate], where the note is “Series 2 EC50”, the midpoint of the response, the EC50, lay at 160 ± 30 nM.

Values taken from US10125129B2 (priority 2016, dated 2018).
